According to patent US7205382B2, “Peptides, the production and use thereof for binding immunoglobulins” (Fresenius Medical Care Affina GmbH, priority 2000, dated 2007):
Bridge positions count the residues as written; N and C are the ends. Ends that are not written are not given here. cellulose = not defined here; βAla = NCCC(=O)O

Tests used:
Format in all cases: binding
Set-up in all cases: key: No binding of immunoglobulin for the defined peptide variant, detection negative: 0; Binding of immunoglobulin for the defined peptide variant, detection positive: +
serum albumin = experiment: Cellulose-immobilized 13-mer peptide variants incubated with serum albumin (negative control), anti-human IgG-AP detection; settings: blocking buffer without addition, 3 h room temperature
In short: (§1)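 Spot membrane, (βA)(βA) spacer; T-TBS pH 8.0 wash, block 5% saccharose/4% BSA. 3 h RT with IgG-Fc 1 μg/ml, serum 1:10,000, or block buffer only (specificity control). 3× wash, AP-anti-human IgG 1.2 μg/ml, NBT/BCIP in pH 9.5 buffer.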

human IgG-Fc = experiment: Cellulose-immobilized 13-mer peptide variants incubated with human IgG-Fc, anti-human IgG-AP detection; settings: IgG-Fc 1 μg/ml in blocking buffer, 3 h room temperature
In short: as §1

[1] = test system: immunoglobulins in human plasma; experiment: Cellulose-immobilized 13-mer peptide variants incubated with human plasma, anti-human IgG-AP detection; settings: human plasma as sample, diluted 1:10,000 in blocking buffer, 3 h room temperature
In short: as §1

10A: cellulose-bound 13-mer variant DCAWHLGELAWCT-(βA)(βA) (DCAWHLGELAWCT-{βAla-βAla-cellulose}; disulfide 2-12 (inferred); reading uncertain; also: printed as DCAWHLGELAWCT-(βA)(βA))
0: Result for incubation with serum albumin (immunoglobulin binding detection) (serum albumin) | Result for incubation with human IgG-Fc (immunoglobulin binding detection) (human IgG-Fc) | Result for incubation with human plasma (immunoglobulin binding detection) [1]

10C: cellulose-bound 13-mer variant DCAWHLGELCWCT-(βA)(βA) (DCAWHLGELCWCT-{βAla-βAla-cellulose}; not fully specified (bridges); printed as DCAWHLGELCWCT-(βA)(βA); cysteine pairing not given here; reading uncertain)
0: Result for incubation with serum albumin (immunoglobulin binding detection) (serum albumin) | Result for incubation with human IgG-Fc (immunoglobulin binding detection) (human IgG-Fc) | Result for incubation with human plasma (immunoglobulin binding detection) [1]

10D: cellulose-bound 13-mer variant DCAWHLGELDWCT-(βA)(βA) (DCAWHLGELDWCT-{βAla-βAla-cellulose}; disulfide 2-12 (inferred); reading uncertain; also: printed as DCAWHLGELDWCT-(βA)(βA))
0: Result for incubation with serum albumin (immunoglobulin binding detection) (serum albumin) | Result for incubation with human IgG-Fc (immunoglobulin binding detection) (human IgG-Fc) | Result for incubation with human plasma (immunoglobulin binding detection) [1]

10E: cellulose-bound 13-mer variant DCAWHLGELEWCT-(βA)(βA) (DCAWHLGELEWCT-{βAla-βAla-cellulose}; disulfide 2-12 (inferred); reading uncertain; also: printed as DCAWHLGELEWCT-(βA)(βA))
0: Result for incubation with serum albumin (immunoglobulin binding detection) (serum albumin) | Result for incubation with human IgG-Fc (immunoglobulin binding detection) (human IgG-Fc) | Result for incubation with human plasma (immunoglobulin binding detection) [1]

10F: cellulose-bound 13-mer variant DCAWHLGELFWCT-(βA)(βA) (DCAWHLGELFWCT-{βAla-βAla-cellulose}; disulfide 2-12 (inferred); reading uncertain; also: printed as DCAWHLGELFWCT-(βA)(βA))
0: Result for incubation with serum albumin (immunoglobulin binding detection) (serum albumin) | Result for incubation with human IgG-Fc (immunoglobulin binding detection) (human IgG-Fc) | Result for incubation with human plasma (immunoglobulin binding detection) [1]

10G: cellulose-bound 13-mer variant DCAWHLGELGWCT-(βA)(βA) (DCAWHLGELGWCT-{βAla-βAla-cellulose}; disulfide 2-12 (inferred); reading uncertain; also: printed as DCAWHLGELGWCT-(βA)(βA))
0: Result for incubation with serum albumin (immunoglobulin binding detection) (serum albumin) | Result for incubation with human IgG-Fc (immunoglobulin binding detection) (human IgG-Fc) | Result for incubation with human plasma (immunoglobulin binding detection) [1]

10H: cellulose-bound 13-mer variant DCAWHLGELHWCT-(βA)(βA) (DCAWHLGELHWCT-{βAla-βAla-cellulose}; disulfide 2-12 (inferred); reading uncertain; also: printed as DCAWHLGELHWCT-(βA)(βA))
0: Result for incubation with serum albumin (immunoglobulin binding detection) (serum albumin) | Result for incubation with human IgG-Fc (immunoglobulin binding detection) (human IgG-Fc) | Result for incubation with human plasma (immunoglobulin binding detection) [1]

10I: cellulose-bound 13-mer variant DCAWHLGELIWCT-(βA)(βA) (DCAWHLGELIWCT-{βAla-βAla-cellulose}; disulfide 2-12 (inferred); reading uncertain; also: printed as DCAWHLGELIWCT-(βA)(βA))
0: Result for incubation with serum albumin (immunoglobulin binding detection) (serum albumin) | Result for incubation with human IgG-Fc (immunoglobulin binding detection) (human IgG-Fc) | Result for incubation with human plasma (immunoglobulin binding detection) [1]

10K: cellulose-bound 13-mer variant DCAWHLGELKWCT-(βA)(βA) (DCAWHLGELKWCT-{βAla-βAla-cellulose}; disulfide 2-12 (inferred); reading uncertain; also: printed as DCAWHLGELKWCT-(βA)(βA))
0: Result for incubation with serum albumin (immunoglobulin binding detection) (serum albumin) | Result for incubation with human IgG-Fc (immunoglobulin binding detection) (human IgG-Fc) | Result for incubation with human plasma (immunoglobulin binding detection) [1]

10L: cellulose-bound 13-mer variant DCAWHLGELLWCT-(βA)(βA) (DCAWHLGELLWCT-{βAla-βAla-cellulose}; disulfide 2-12 (inferred); reading uncertain; also: printed as DCAWHLGELLWCT-(βA)(βA))
0: Result for incubation with serum albumin (immunoglobulin binding detection) (serum albumin) | Result for incubation with human IgG-Fc (immunoglobulin binding detection) (human IgG-Fc) | Result for incubation with human plasma (immunoglobulin binding detection) [1]

10M: cellulose-bound 13-mer variant DCAWHLGELMWCT-(βA)(βA) (DCAWHLGELMWCT-{βAla-βAla-cellulose}; disulfide 2-12 (inferred); reading uncertain; also: printed as DCAWHLGELMWCT-(βA)(βA))
0: Result for incubation with serum albumin (immunoglobulin binding detection) (serum albumin) | Result for incubation with human IgG-Fc (immunoglobulin binding detection) (human IgG-Fc) | Result for incubation with human plasma (immunoglobulin binding detection) [1]

10N: cellulose-bound 13-mer variant DCAWHLGELNWCT-(βA)(βA) (DCAWHLGELNWCT-{βAla-βAla-cellulose}; disulfide 2-12 (inferred); reading uncertain; also: printed as DCAWHLGELNWCT-(βA)(βA))
0: Result for incubation with serum albumin (immunoglobulin binding detection) (serum albumin) | Result for incubation with human IgG-Fc (immunoglobulin binding detection) (human IgG-Fc) | Result for incubation with human plasma (immunoglobulin binding detection) [1]

10P: cellulose-bound 13-mer variant DCAWHLGELPWCT-(βA)(βA) (DCAWHLGELPWCT-{βAla-βAla-cellulose}; disulfide 2-12 (inferred); reading uncertain; also: printed as DCAWHLGELPWCT-(βA)(βA))
0: Result for incubation with serum albumin (immunoglobulin binding detection) (serum albumin) | Result for incubation with human IgG-Fc (immunoglobulin binding detection) (human IgG-Fc) | Result for incubation with human plasma (immunoglobulin binding detection) [1]

10Q: cellulose-bound 13-mer variant DCAWHLGELQWCT-(βA)(βA) (DCAWHLGELQWCT-{βAla-βAla-cellulose}; disulfide 2-12 (inferred); reading uncertain; also: printed as DCAWHLGELQWCT-(βA)(βA))
0: Result for incubation with serum albumin (immunoglobulin binding detection) (serum albumin) | Result for incubation with human IgG-Fc (immunoglobulin binding detection) (human IgG-Fc) | Result for incubation with human plasma (immunoglobulin binding detection) [1]

10R: cellulose-bound 13-mer variant DCAWHLGELRWCT-(βA)(βA) (DCAWHLGELRWCT-{βAla-βAla-cellulose}; disulfide 2-12 (inferred); reading uncertain; also: printed as DCAWHLGELRWCT-(βA)(βA))
0: Result for incubation with serum albumin (immunoglobulin binding detection) (serum albumin) | Result for incubation with human IgG-Fc (immunoglobulin binding detection) (human IgG-Fc) | Result for incubation with human plasma (immunoglobulin binding detection) [1]

10S: cellulose-bound 13-mer variant DCAWHLGELSWCT-(βA)(βA) (DCAWHLGELSWCT-{βAla-βAla-cellulose}; disulfide 2-12 (inferred); reading uncertain; also: printed as DCAWHLGELSWCT-(βA)(βA))
0: Result for incubation with serum albumin (immunoglobulin binding detection) (serum albumin) | Result for incubation with human IgG-Fc (immunoglobulin binding detection) (human IgG-Fc) | Result for incubation with human plasma (immunoglobulin binding detection) [1]

10T: cellulose-bound 13-mer variant DCAWHLGELTWCT-(βA)(βA) (DCAWHLGELTWCT-{βAla-βAla-cellulose}; disulfide 2-12 (inferred); reading uncertain; also: printed as DCAWHLGELTWCT-(βA)(βA))
0: Result for incubation with serum albumin (immunoglobulin binding detection) (serum albumin) | Result for incubation with human IgG-Fc (immunoglobulin binding detection) (human IgG-Fc) | Result for incubation with human plasma (immunoglobulin binding detection) [1]

10W: cellulose-bound 13-mer variant DCAWHLGELWWCT-(βA)(βA) (DCAWHLGELWWCT-{βAla-βAla-cellulose}; disulfide 2-12 (inferred); reading uncertain; also: printed as DCAWHLGELWWCT-(βA)(βA))
0: Result for incubation with serum albumin (immunoglobulin binding detection) (serum albumin) | Result for incubation with human IgG-Fc (immunoglobulin binding detection) (human IgG-Fc) | Result for incubation with human plasma (immunoglobulin binding detection) [1]

10Y: cellulose-bound 13-mer variant DCAWHLGELYWCT-(βA)(βA) (DCAWHLGELYWCT-{βAla-βAla-cellulose}; disulfide 2-12 (inferred); reading uncertain; also: printed as DCAWHLGELYWCT-(βA)(βA))
0: Result for incubation with serum albumin (immunoglobulin binding detection) (serum albumin) | Result for incubation with human IgG-Fc (immunoglobulin binding detection) (human IgG-Fc) | Result for incubation with human plasma (immunoglobulin binding detection) [1]

11A: cellulose-bound 13-mer variant DCAWHLGELVACT-(βA)(βA) (DCAWHLGELVACT-{βAla-βAla-cellulose}; disulfide 2-12 (inferred); reading uncertain; also: printed as DCAWHLGELVACT-(βA)(βA))
0: Result for incubation with serum albumin (immunoglobulin binding detection) (serum albumin) | Result for incubation with human IgG-Fc (immunoglobulin binding detection) (human IgG-Fc) | Result for incubation with human plasma (immunoglobulin binding detection) [1]

11C: cellulose-bound 13-mer variant DCAWHLGELVCCT-(βA)(βA) (DCAWHLGELVCCT-{βAla-βAla-cellulose}; not fully specified (bridges); printed as DCAWHLGELVCCT-(βA)(βA); cysteine pairing not given here; reading uncertain)
0: Result for incubation with serum albumin (immunoglobulin binding detection) (serum albumin) | Result for incubation with human IgG-Fc (immunoglobulin binding detection) (human IgG-Fc) | Result for incubation with human plasma (immunoglobulin binding detection) [1]
